Our source for the Kd values is paper PMC9936921 (Oncogene, 2018).

Holding throughout (experiment): SPR
What all share (type): binding

Assay [1] has as its target CD99 (Homo sapiens, UniProt P14209).
Assay [2] addresses T1, CD99 (Homo sapiens, UniProt P14209).
T1 sequence (P14209 23-185): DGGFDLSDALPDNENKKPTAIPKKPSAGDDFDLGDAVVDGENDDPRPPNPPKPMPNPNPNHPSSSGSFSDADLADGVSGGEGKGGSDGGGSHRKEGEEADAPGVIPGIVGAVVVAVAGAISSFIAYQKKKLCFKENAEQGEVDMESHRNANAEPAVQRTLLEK
This is another data set of the same source.

The target of assay [3] is T1, CD99. This is another data set of the same source.

SMILES strings stand for the structures. Read-outs that look alike come from different tables or passages of the source.

Consider `Nc1nc(Cl)nc2c1ncn2[C@H]1C[C@H](O)[C@@H](CO)O1` [cladribine], for which the Kd – broadly, a measure of binding affinity in units of concentration – on CD99 [1] is 3.8 ± 3.3 µM.

At CD99 [2], `Nc1nc(Cl)nc2c1ncn2[C@@H]1O[C@H](COP(=O)(O)OP(=O)(O)OP(=O)(O)O)[C@@H](O)[C@@H]1F` [clofarabine-5’-triphosphate] showed a Kd of 3.7 µM.

`Nc1nc(Cl)nc2c1ncn2[C@@H]1O[C@H](CO)[C@@H](O)[C@@H]1F` [clofarabine] showed a Kd at CD99 [3] of 5.3 ± 3.2 µM.
